Laboratory results published in PubChem BioAssay (NCI).
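GI50 marks 50% less growth. TGI denotes the concentration required for complete inhibition of growth.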

Key:
Test in all cases: NCI-60 cell line screen, 384-well format
[1] = system: SF-539 CNS
[2] = system: OVCAR-3 ovarian
[3] = system: HOP-92 NSCLC
[4] = system: RXF 393 renal
[5] = system: MDA-MB-231 breast
[6] = system: MALME-3M melanoma
[7] = system: TK-10 renal
[8] = system: LOX IMVI melanoma
[9] = system: SW-620 colon
[10] = system: SNB-19 CNS
[11] = system: MDA-MB-468 breast
[12] = system: DU-145 prostate
[13] = system: SK-OV-3 ovarian
[14] = system: OVCAR-4 ovarian
[15] = system: BT-549 breast
[16] = system: NCI-H23 lung
[17] = system: OVCAR-5 ovarian
[18] = system: MDA-MB-435 melanoma
[19] = system: A498 renal
[20] = system: HL-60(TB) leukemia
[21] = system: SF-268 CNS
[22] = system: HS 578T breast
[23] = system: SNB-75 CNS
[24] = system: U251 glioblastoma
[25] = system: MCF7 breast
[26] = system: UACC-62 melanoma
[27] = system: M14 melanoma
[28] = system: OVCAR-8 ovarian
[29] = system: UO-31 renal
[30] = system: NCI-H322M lung
[31] = system: SK-MEL-2 melanoma
[32] = system: EKVX NSCLC
[33] = system: CAKI-1 renal
[34] = system: KM12 colon
[35] = system: HCT-15 colon
[36] = system: IGROV1 ovarian
[37] = system: 786-0 renal
[38] = system: RPMI-8226 leukemia
[39] = system: ACHN renal
[40] = system: UACC-257 melanoma
[41] = system: K-562 leukemia
[42] = system: A549 NSCLC
[43] = system: CCRF-CEM leukemia
[44] = system: NCI-H522 lung
[45] = system: SF-295 CNS
[46] = system: SK-MEL-28 melanoma
[47] = system: T-47D breast
[48] = system: NCI-H226 lung
[49] = system: NCI/ADR-RES ovarian
[50] = system: MOLT-4 leukemia
[51] = system: HCT-116 colon
[52] = system: PC-3 prostate
[53] = system: HT29 colon
[54] = system: HOP-62 NSCLC
[55] = system: SN12C renal

## CN(N=O)C(=O)N[C@@H](C=O)[C@@H](O)[C@H](O)[C@H](O)CO
[1]
  GI50: > 100 µM
  TGI: > 100 µM
[2]
  GI50: > 100 µM
  TGI: > 100 µM
[3]
  GI50: > 100 µM
  TGI: > 100 µM
[4]
  GI50: > 100 µM
  TGI: > 100 µM
[5]
  GI50: > 100 µM
  TGI: > 100 µM
[6]
  GI50: > 100 µM
  TGI: > 100 µM
[7]
  GI50: > 100 µM
  TGI: > 100 µM
[8]
  GI50: > 100 µM
  TGI: > 100 µM
[9]
  GI50: > 100 µM
  TGI: > 100 µM
[10]
  GI50: > 100 µM
  TGI: > 100 µM
[11]
  GI50: > 100 µM
  TGI: > 100 µM
[12]
  GI50: > 100 µM
  TGI: > 100 µM
[13]
  GI50: > 100 µM
  TGI: > 100 µM
[14]
  GI50: > 100 µM
  TGI: > 100 µM
[15]
  GI50: > 100 µM
  TGI: > 100 µM
[16]
  GI50: > 100 µM
  TGI: > 100 µM
[17]
  GI50: > 100 µM
  TGI: > 100 µM
[18]
  GI50: > 100 µM
  TGI: > 100 µM
[19]
  GI50: > 100 µM
  TGI: > 100 µM
[20]
  GI50: > 100 µM
  TGI: > 100 µM
[21]
  GI50: > 100 µM
  TGI: > 100 µM
[22]
  GI50: > 100 µM
  TGI: > 100 µM
[23]
  GI50: > 100 µM
  TGI: > 100 µM
[24]
  GI50: > 100 µM
  TGI: > 100 µM
[25]
  GI50: > 100 µM
  TGI: > 100 µM
[26]
  GI50: > 100 µM
  TGI: > 100 µM
[27]
  GI50: > 100 µM
  TGI: > 100 µM
[28]
  GI50: > 100 µM
  TGI: > 100 µM
[29]
  GI50: > 100 µM
  TGI: > 100 µM
[30]
  GI50: > 100 µM
  TGI: > 100 µM
[31]
  GI50: > 100 µM
  TGI: > 100 µM
[32]
  GI50: > 100 µM
  TGI: > 100 µM
[33]
  GI50: > 100 µM
  TGI: > 100 µM
[34]
  GI50: > 100 µM
  TGI: > 100 µM
[35]
  GI50: > 100 µM
  TGI: > 100 µM
[36]
  GI50: > 100 µM
  TGI: > 100 µM
[37]
  GI50: > 100 µM
  TGI: > 100 µM
[38]
  GI50: > 100 µM
  TGI: > 100 µM
[39]
  GI50: > 100 µM
  TGI: > 100 µM
[40]
  GI50: > 100 µM
  TGI: > 100 µM
[41]
  GI50: > 100 µM
  TGI: > 100 µM
[42]
  GI50: > 100 µM
  TGI: > 100 µM
[43]
  GI50: > 100 µM
  TGI: > 100 µM
[44]
  GI50: > 100 µM
  TGI: > 100 µM
[45]
  GI50: > 100 µM
  TGI: > 100 µM
[46]
  GI50: > 100 µM
  TGI: > 100 µM
[47]
  GI50: > 100 µM
  TGI: > 100 µM
[48]
  GI50: > 100 µM
  TGI: > 100 µM
[49]
  GI50: > 100 µM
  TGI: > 100 µM
[50]
  GI50: > 100 µM
  TGI: > 100 µM
[51]
  GI50: > 100 µM
  TGI: > 100 µM
[52]
  GI50: > 100 µM
  TGI: > 100 µM
[53]
  GI50: > 100 µM
  TGI: > 100 µM
[54]
  GI50: > 100 µM
  TGI: > 100 µM
[55]
  GI50: > 100 µM
  TGI: > 100 µM
